In one data set the test system is PC12 cells. The data set is described as follows: DansylD1 uptake calibration in PC-12 cells (fluorescence microscope). The class given is cell-based. The conditions noted are these: 500 nM DansylD1, dopamine as competitive inhibitor, GBR as dopamine transporter blocker, FIGS. 3A-3D.
Data set [1] deals with hESC-derived dopaminergic neurons. The data set is described as follows: DansylD1 labeling and uptake in hESC-derived dopaminergic neurons. The data set is classed as cell-based, human. The following applies: for DansylD1 fluorescence level: hESC-derived dopaminergic neurons after 26 days of differentiation, agent present in the medium, FIGS. 6A-6D.
Excerpt: In order to direct the differentiation of hESCs into DA neurons, the cells were first directed to become neural progenitors within free-floating spheres (2 weeks) in the presence of the dual SMAD inhibitors (LDN193189+SB431542), FGF8, Purmorphamine and CHIR. They were further directed to differentiate into DA progenitors (7 days) as adherent cultures on laminin/fibronectin in the presence of FGF8, Purmorphamine and CHIR. Finally, they were differentiated into mature DA neurons (7 days) in the presence of the following factors (BDNF, NT4, AA, db-cAMP, TGFbeta3, GDNF and DAPT). The relevant factors/mitogens were replaced every 2-3 days.
(§3) For Binding and uptake of the fluorescent ligand, 500-1000 nM of DansylD1™ (Five Photon Biochemicals™, Lot#81672) was administrated to the seeded cells after 2 weeks of differentiation on the coverslips or on 12/24 wells plastic plates for 10-15 minutes in 37° C. […] Uptake levels of the dansylD1 fluorescent ligand molecule were detected and analyzed by fluorescence microscope and a fluorescence micro-plate reader (Bioteck, 333/515 nm). Acquisition and analysis was performed using Magelan software and Microsoft Excel.
The neuronal culture was incubated in the presence of the D2 antagonist Sulpiride.
The next data set concerns dopaminergic neurons. The data set is described as follows: DansylD1 fluorescence in dopaminergic neurons after toxin exposure. The following applies: for DansylD1 fluorescence levels by micro-plate reader: 2 week differentiated live mature DA neurons, different toxin concentrations, 1 day, DansylD1 added again, FIG. 11. The data set is classed as cell-based, human. As to the method: For Binding and uptake of the fluorescent ligand, 500-1000 nM of DansylD1™ (Five Photon Biochemicals™, Lot#81672) was administrated to the seeded cells after 2 weeks of differentiation on the coverslips or on 12/24 wells plastic plates for 10-15 minutes in 37° C. DansylD1 functions as the dopamine neurotransmitter in binding to the D2 dopamine receptor on Dopaminergic and GABAergic neurons and uptake through the dopamine transporter (DAT) by dopaminergic neurons. 50 nM of the D2 dopamine receptor antagonist—Sulpiride (sigma S112, Lot#108H4745) or 5 nM of the dopamine transporter (DAT) blocker—GBR (Sigma G9659, Lot#086K4104), were added for 10 minutes to the seeded cells in order to reduce the binding to non-dopaminergic neurons or to block the specific DansylD1 uptake respectively. Uptake levels of the dansylD1 fluorescent ligand molecule were detected and analyzed by fluorescence microscope and a fluorescence micro-plate reader (Bioteck, 333/515 nm). Acquisition and analysis was performed using Magelan software and Microsoft Excel.
Dopaminergic neurons were fluorescently labeled with Dansyl D1. Increasing levels of 6-OH dopamine (50 nM and 100 nM) were added to the dopaminergic neurons and following 1 day of culture, the neurons were contacted again with Dansyl D1. The cells were rinsed and then the amount of fluorescence was analyzed.
(§1) An additional experiment compared the effect of 100 nM 6-OH dopamine with 200 nM 6-OH dopamine. As illustrated in FIGS. 10A-10B, after addition of 200 nM 6-OH-dopamine to mature DA neurons the fluorescence levels of dansylD1 was decreased (green) and also the percentage of cells expressing TH (DA neuron marker) declined to 1-2% (FIGS. 10C and D).
(§2) Dansyl D1 was added to 2 week differentiated live mature DA neurons and the fluorescence levels quantified by fluorescence micro-plate reader. Later the cells were washed and different 6-OH-dopamine concentrations were added. After a day, dansylD1 was added again and the fluorescent levels measured once again.

The subject of a further data set is mature DA neurons. As to the kind of experiment: TH expression in mature DA neurons after toxin exposure. The class given is cell-based, human. How it is done:
For staining, cells on the coverslips were blocked in 5% normal goat/donkey serum (NGS) for 1 hour at room temperature. The anti TH antibody was diluted 1:100 or 1:1000 in 1% normal donkey/goat serum (NGS) and applied for 1 hour at room temperature. The antibodies that was employed were rabbit anti-human TH polyclonal antibody or mouse anti-human TH monoclonal antibody, Cat No. p40101, purchased from Pel-freez, or Cat No. T1299 purchased from Sigma and rabbit anti hu Nurr1 ab AB5778 (Millipore 10 ug/ml) or mouse igG anti NurrI (millipore, 1:200 or 1:1000), Rabbit Anti DAT AB5802 (Millipore, 1:500-1:1000). Following three washes in PBS, swine-anti rabbit FITC or goat anti mouse Cy-3-antibody diluted 1:50 or 1:500 in 1% normal goat serum (NGS) was applied for 1 hour at room temperature. Cells were washed in PBS, fixed with 4% PFA and mounted in the presence of the nuclear counterstain DAPI for immunofluoresecent microscopic examination.
as §1

Another data set deals with DA neurons. As to the kind of experiment: Protection of DA neurons from the toxin 6-OH dopamine. The data set is classed as cell-based, human. The conditions noted are these: cells over-expressing GDNF; FIG. 12. How it is done:
as §2

[2] abbreviates: 200 nM toxin, mature DA neurons.

Description for PC12 cells: as §3

On to `NCCc1ccc(O)c(O)c1` [dopamine], for which the “amount of DansylD1 fluorescence in the cells” value with PC12 cells is “decreased the amount of fluorescence”. Also, the DansylD1 fluorescence level entry in data set [1] is “caused the fluorescence level to decline”.

Take `NCCc1cc(O)c(O)cc1O` [6-OH-dopamine]: in the data set with dopaminergic neurons (50 nM and 100 nM toxin, 1 day of culture, relabeled with Dansyl D1, FIGS. 10A-10C), the “amount of Dansyl D1 fluorescence in dopaminergic cells” value is recorded as “reduced”. For the same molecule, in the data set with dopaminergic neurons (100 nM toxin), the Dansyl-D1 uptake result is reported as “significant decrease”. The “fluorescence levels of dansylD1” value in the data set with dopaminergic neurons (setting [2]) is reported as “decreased”. In addition, the “DansylD1 fluorescence levels by micro-plate reader” value with dopaminergic neurons was “decreased by half”; in the data set with dopaminergic neurons (listed as 6-OH dopamine) it was “reduced in correlation with the amount of toxin”. In addition, the TH positive cells result with mature DA neurons (100 nM toxin) is on record as “only minor reduction”. The “percentage of cells expressing TH” value in the data set with mature DA neurons (setting [2]) is on record as 1-2%.

Consider `CCN1CCCC1CNC(=O)c1cc(S(N)(=O)=O)ccc1OC` (stereo not shown) [sulpiride], for which the “DansylD1 signal from the cells surface” value in data set [1] (neuronal culture incubated with the D2 antagonist, fluorescent vesicles appear, FIGS. 8A-8B) is on record as “less signal from the cells surface”.

With `Cl.Cl.Fc1ccc(C(OCCN2CCN(CCCc3ccccc3)CC2)c2ccc(F)cc2)cc1` [GBR], the “amount of DansylD1 fluorescence in the cells” value with PC12 cells is reported as “decreased the amount of fluorescence”. For the same molecule, in data set [1], the DansylD1 fluorescence level result is “caused the fluorescence level to decline”.

B1: GDNF: neurotrophic factor over-expressed by cells that protected DA neurons from the toxin (protein, UniProt P39905 78-211, looked up)
Glial cell line-derived …: SPDKQMAVLPRRERNRQAAAANPENSRGKGRRGQRGKNRGCVLTAIHLNVTDLGLGYETKEELIFRYCSGSCDAAETTYDKILKNLSRNRRLVSDKVGQACCRPIAFDDDLSFLDDNLVYHILRKHSAKRCGCI
With B1, the “protection of neurons from the toxin 6-OH dopamine” value with DA neurons is reported as “protected”.
